Reference: patent US8410056B2, “Pro-oxidant anti-cancer compounds” (priority 2006, dated 2013)

Experiments:
[1] = test system: erbB2 highly positive breast carcinomas
Experimental: (A) Nude mice were inoculated with MCF-7 cells and, after tumors became established, the animals were treated once every 3 d with 10 μmoles per mouse of α-TOS dissolved in DMSO or with DMSO alone, by intraperitoneal (i.p.) injection. Tumor size was measured using calipers and was correlated to the size of the carcinomas at the onset of the therapy. Four animals were used in each group. The results shown are mean values±S.E. The symbol ‘*’ denotes significant difference (p<0.05). (B) Female FVB/N erbB2 mice with palpable tumors (see General Materials and Methods) received either 10 μmoles α-TOS solubilized in corn oil/4% ethanol (n=11) or the corn oil/4% ethanol alone (control, n=9) by i.p. injection once every 3 d, or 0.2 μmoles 3-BP (n=8) in PBS at the tumor site every day. Tumor size was recorded using calipers. Two independent experiments were conducted. Results are represented as mean values±S.E. The symbol ‘*’ denotes significant difference (p<0.05) in the analysis of variance between the 3-BP and α-TOS curves.
Mouse tumor experiments. Nude mice were inoculated subcutaneously with MCF-7 cells (2×10^6 cells/mouse). After tumors developed (diameter of 3-7 mm), mice were injected intraperitoneally with 10 μmoles α-TOS in DMSO every 3 days. Control mice were injected with an equal volume (100 μl) of DMSO only. Tumor size was estimated by measuring with digital calipers. A colony of transgenic FVB/N2O2 rat c-neu mice carrying the rat HER-2/neu protooncogene driven by the MMTV promoter on the H-2^q FVB/N background (Guy et al, 1992) was established at the Griffith University Animal Facility and maintained under strict inbreeding conditions. The presence of the transgene was routinely confirmed by PCR. Approximately 70% of the female mice developed spontaneous mammary carcinomas with a mean latency time of 10 months. Female transgenic FVB/N2O2 rat c-neu mice bearing progressively growing tumors with a mean diameter of 10±5 mm were randomly assigned to control or treatment groups. Tumor size was measured using digital calipers. […]

[2] = molecular target: T1, SDH/Complex II, Paracoccus denitrificans membranes (Paracoccus denitrificans, UniProt Q59659+Q59660+Q59662); assay: SDH/Complex II activity, DCIP/PMS assay; assay type: biochemical; details: 100 or 300 μM α-TOS; compared to control
T1 construct: Membranes were prepared from harvested cells by treating with lysozyme; endogenous in cells; host or cells: membrane vesicles of P. denitrificans CCM 982 (NCIB 8944), endogenous enzyme
T1 sequence (Q59662 whole entry): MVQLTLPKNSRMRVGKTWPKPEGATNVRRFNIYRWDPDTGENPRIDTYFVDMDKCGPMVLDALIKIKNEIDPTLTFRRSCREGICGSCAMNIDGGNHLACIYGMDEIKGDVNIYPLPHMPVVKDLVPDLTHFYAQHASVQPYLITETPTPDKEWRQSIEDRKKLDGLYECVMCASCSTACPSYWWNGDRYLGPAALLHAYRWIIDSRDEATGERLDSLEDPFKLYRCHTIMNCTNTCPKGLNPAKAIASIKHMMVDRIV
T1 sequence (Q59660 whole entry): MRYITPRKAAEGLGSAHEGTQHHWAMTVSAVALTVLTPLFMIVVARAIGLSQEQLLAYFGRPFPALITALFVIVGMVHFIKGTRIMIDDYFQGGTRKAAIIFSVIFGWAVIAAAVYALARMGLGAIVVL
T1 sequence (Q59659 whole entry): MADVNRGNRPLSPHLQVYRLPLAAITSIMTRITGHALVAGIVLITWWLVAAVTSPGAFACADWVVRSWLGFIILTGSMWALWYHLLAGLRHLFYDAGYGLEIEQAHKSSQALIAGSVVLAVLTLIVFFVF
T1 sequence (Q59661 whole entry, further chain): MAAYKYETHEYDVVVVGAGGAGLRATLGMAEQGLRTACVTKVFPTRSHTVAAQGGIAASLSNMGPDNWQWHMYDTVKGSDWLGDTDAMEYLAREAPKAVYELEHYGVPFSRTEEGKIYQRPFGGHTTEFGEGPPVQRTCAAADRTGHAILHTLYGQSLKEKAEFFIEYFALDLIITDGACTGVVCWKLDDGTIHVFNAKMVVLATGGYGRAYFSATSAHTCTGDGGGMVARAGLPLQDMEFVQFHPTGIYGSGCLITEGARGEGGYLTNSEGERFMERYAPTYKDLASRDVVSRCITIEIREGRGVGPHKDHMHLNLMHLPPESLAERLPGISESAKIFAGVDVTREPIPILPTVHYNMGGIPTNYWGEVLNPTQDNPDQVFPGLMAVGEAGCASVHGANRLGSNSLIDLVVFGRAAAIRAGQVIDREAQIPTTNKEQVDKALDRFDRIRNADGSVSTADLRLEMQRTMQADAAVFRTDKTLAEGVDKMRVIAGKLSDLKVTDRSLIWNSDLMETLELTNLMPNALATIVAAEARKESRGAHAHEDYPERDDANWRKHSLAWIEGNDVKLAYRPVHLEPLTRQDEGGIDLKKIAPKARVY
Experimental: Preparation of membrane vesicles from Paracoccus denitrificans. P. denitrificans CCM 982 (NCIB 8944) was grown anaerobically at 30° C. in a medium containing 50 mM succinate as the carbon source and 10 mM nitrate as the terminal acceptor. Membranes were prepared from harvested cells by treating with lysozyme according to Burnell et al (1975). After dilution in 0.1 M Na phosphate, pH 7.3, to a final protein concentration of approximately 20 mg/ml, the membranes were stored at −20° C. in 1 ml aliquots until used. The protein concentration was determined using the bicinchoninic acid method and an iEMS plate reader (Labsystem, Finland).
(§1) Measurement of mitochondrial complex II and complex I activity. A time course for the reduction of the complex II substrate 2,6-dichlorophenol indophenol (DCIP) by the mitochondrial preparations was followed by measuring the absorbance at 600 nm in 1 cm cuvettes containing a 1 ml reaction volume (ε600=21×10^3 M^−1cm^−1). The reaction components included NADH, 0.5 mM; succinate, 5 mM; KCN, 10 mM; DCIP, 50 μM; PMS, 50 μM. For each assay point, 0.5 mg sample protein was used and α-TOS was added at either 100 or 300 μM as indicated. The change in absorbance of DCIP was measured using a spectrophotometer (UVIKON XL, Secomam) and replicate samples were assayed (n=3). When measuring the complex I (NADH dehydrogenase activity), PMS was omitted. […]

[3] = molecular target: T2, complex II/SDH-dependent activity in NeuTL cells (Mus musculus, UniProt Q8K2B3+Q9CQA3+Q9CXV1+Q9CZB0); assay: MTT reduction assay of complex II/SDH activity in whole cells; assay type: cell-based, murine
T2 construct: For specifically measuring complex II activity in whole cells; endogenous in cells; host or cells: NeuTL murine breast cancer cells
T2 sequence (Q8K2B3 43-664): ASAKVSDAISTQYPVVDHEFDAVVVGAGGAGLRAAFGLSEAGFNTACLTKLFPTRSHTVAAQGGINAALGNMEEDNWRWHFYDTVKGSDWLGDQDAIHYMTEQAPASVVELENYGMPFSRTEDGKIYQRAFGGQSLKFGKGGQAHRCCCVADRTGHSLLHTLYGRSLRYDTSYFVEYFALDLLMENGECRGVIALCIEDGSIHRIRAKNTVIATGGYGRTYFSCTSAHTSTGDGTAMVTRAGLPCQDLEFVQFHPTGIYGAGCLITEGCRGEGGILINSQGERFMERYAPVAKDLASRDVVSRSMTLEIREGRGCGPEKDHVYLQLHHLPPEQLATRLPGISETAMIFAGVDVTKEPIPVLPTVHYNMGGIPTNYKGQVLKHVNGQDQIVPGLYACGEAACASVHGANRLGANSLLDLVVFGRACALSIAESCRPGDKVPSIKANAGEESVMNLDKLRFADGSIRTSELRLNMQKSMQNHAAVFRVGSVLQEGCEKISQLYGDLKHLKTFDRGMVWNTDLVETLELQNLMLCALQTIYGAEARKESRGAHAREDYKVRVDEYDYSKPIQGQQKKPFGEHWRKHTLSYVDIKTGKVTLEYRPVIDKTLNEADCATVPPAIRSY
T2 sequence (Q9CQA3 31-282): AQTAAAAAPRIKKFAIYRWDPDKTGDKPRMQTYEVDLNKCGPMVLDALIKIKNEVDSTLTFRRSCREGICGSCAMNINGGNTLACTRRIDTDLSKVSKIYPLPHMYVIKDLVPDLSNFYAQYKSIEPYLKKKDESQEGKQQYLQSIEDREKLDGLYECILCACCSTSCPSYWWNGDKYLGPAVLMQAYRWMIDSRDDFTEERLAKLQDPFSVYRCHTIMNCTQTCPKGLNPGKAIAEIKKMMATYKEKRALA
T2 sequence (Q9CZB0 30-169): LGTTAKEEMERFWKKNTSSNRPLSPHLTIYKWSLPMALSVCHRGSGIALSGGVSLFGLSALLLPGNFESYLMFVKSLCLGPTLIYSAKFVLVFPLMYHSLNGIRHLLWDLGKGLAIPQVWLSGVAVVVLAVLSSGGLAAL
T2 sequence (Q9CXV1 57-159): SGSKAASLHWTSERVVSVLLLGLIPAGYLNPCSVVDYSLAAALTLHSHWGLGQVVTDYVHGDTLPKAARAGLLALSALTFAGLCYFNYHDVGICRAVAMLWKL
Experimental: MTT assay. MTT solutions were prepared immediately before use by dissolving 2.5 mg/ml 3-(4,5-dimethyl[…] (MTT) (Sigma) in PBS alone or phenol red-free RPMI medium containing 20 mM succinic acid, pH 7.4. Stock solutions of 3-nitropropionic acid (3NPA) in ethanol, thenoyltrifluoroacetone (TTFA) in DMSO, 3-BP in PBS, α-TOS in DMSO, and MitoQ (Alleva et al, 2003, James et al, 2005) in ethanol were prepared. The drugs were tested on NeuTL cells cultured in exponential growth phase in 96-well microtitre plates using 4-8 replicate wells per dilution assayed. To assess the ability of MitoQ to restore MTT reduction, cells were pre-incubated for 60 min with 2 or 5 μM MitoQ. Final concentrations of ethanol or DMSO in cultures were ≦0.1%. Treated and control cells were allowed to reduce MTT to blue formazan crystals for 2 or 4 h at 37° C. and 5% CO2. After incubation, culture supernatants were removed except for 30 μl, before the formazan crystals were solubilized by addition of 150 μl DMSO, and absorbance values were measured at 570 nm using a Fluorostar Optima plate reader.
To this end, the present inventors investigated whether α-TOS interferes with UbQ binding in complex II. For specifically measuring complex II activity in whole cells, a short-term (1-2 h) assay was used based on the reduction of the tetrazolium salt, MTT (Maehara et al, 1988). […] For this, oxidative respiration of murine NeuTL breast cancer cells was sustained on high levels of succinate (20 mM), thereby promoting the SDH activity of complex II (Maehara et al, 1988). The cells were then assayed within 1-2 h for their ability to enzymatically reduce MTT, which under conditions of high succinate becomes a specific indicator of complex II/SDH-dependent activity (Maehara et al, 1988, Berridge and Tan, 1993).

[4] = molecular target: T3, SDH/Complex II, isolated rat liver mitochondria (Rattus norvegicus, UniProt P21913+Q641Z9+Q6PCT8); assay: SDH/Complex II activity, DCIP/PMS assay; assay type: biochemical; details: 100 or 300 μM α-TOS; compared to control
T3 construct: Rat liver mitochondria were prepared by differential centrifugation; from tissue; host or cells: rat liver mitochondria / sub-mitochondrial particles
T3 sequence (P21913 31-282): as the sequence (Q9CQA3 31-282) above, with K13T, T24A, E34K, V55I, S94G, D197E, V212L counted along it
T3 sequence (Q641Z9 30-169 limits assumed): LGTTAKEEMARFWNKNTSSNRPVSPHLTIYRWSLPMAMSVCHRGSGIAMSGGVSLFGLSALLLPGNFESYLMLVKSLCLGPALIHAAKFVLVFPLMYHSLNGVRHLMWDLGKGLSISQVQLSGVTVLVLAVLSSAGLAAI
T3 sequence (Q6PCT8 57-159): as the sequence (Q9CXV1 57-159) above, with L51I, T63A, P65Q, A68T, R69K, L75V counted along it
T3 sequence (Q920L2 35-656 partner): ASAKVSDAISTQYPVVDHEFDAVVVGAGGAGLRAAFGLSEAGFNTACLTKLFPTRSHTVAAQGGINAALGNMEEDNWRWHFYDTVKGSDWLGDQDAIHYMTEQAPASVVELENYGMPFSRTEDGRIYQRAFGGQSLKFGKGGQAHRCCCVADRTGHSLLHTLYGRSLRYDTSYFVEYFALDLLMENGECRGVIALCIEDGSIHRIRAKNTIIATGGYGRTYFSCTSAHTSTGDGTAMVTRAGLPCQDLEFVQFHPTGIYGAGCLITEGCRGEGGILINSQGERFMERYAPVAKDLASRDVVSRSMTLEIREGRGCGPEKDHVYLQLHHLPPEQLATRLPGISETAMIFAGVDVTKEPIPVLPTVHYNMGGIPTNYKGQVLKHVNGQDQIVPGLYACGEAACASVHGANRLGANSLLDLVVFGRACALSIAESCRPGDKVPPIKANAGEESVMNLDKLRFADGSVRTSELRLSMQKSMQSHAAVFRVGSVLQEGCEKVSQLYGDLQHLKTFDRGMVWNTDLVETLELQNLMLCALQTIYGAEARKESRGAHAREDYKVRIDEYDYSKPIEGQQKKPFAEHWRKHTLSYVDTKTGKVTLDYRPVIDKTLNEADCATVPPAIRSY
Experimental: Preparation of sub-mitochondrial particles (SMPs) from isolated rat liver. Rat liver mitochondria were prepared by differential centrifugation according to the modified method of Rice and Lindsay, 1997. 2 ml of mitochondrial pellet were resuspended in 15 ml of 20 mM KH2 PO4 pH 7.4 and sonicated at a setting of 80 Watt for 3×15 s. The sonicated solution was then centrifuged at 6,500×g for 7 min. The supernatant fraction was kept on ice and the remaining pellet resuspended and sonicated again. The sonicated solution was centrifuged as before and the supernatant removed from the second centrifugation step combined with that from the first centrifrugation. The combined supernatant was recentrifitged at 108,000×g for 1 h. The pellet of SMPs was resuspended in 5 ml of 20 mM KH2PO4 pH 7.4 and stored frozen at −20° C. until used.
as §1, with “For each assay point, 0.5 mg sample protein was used and α-TOS was added at either 100 or 300 μM as indicated.” left out, “(n=3).” for “(n=3). When measuring the complex I (NADH dehydrogenase activity), PMS was omitted.”

## Cc1c(C)c2c(c(C)c1OC(=O)CCC(=O)O)CC[C@@](C)(CCC[C@H](C)CCC[C@H](C)CCCC(C)C)O2 [Compound 1, α-tocopheryl succinate]
[1]; about, over the 2 weeks of treatment, 10 μmoles i.p. every 3 d
  reduction in the average size of tumors: 30-40%
[1]; α-TOS 10 μmoles i.p. every 3 d, 3-BP 0.2 μmoles daily intratumorally
  tumor growth: statistically more effective (p<0.05 by analysis of covariance) than 3-BP
[2]
  rate of reduction of DCIP (SDH/Complex II activity): decreased rapidly and significantly after treatment with α-TOS
[3]; cells pre-incubated 1 h with MitoQ
  inhibition of MTT reduction after MitoQ pre-incubation: significantly overcome by pre-incubation of the cells with MitoQ
[3]; within a few hours of treatment
  enzymatic reduction of MTT: significant decreases occurring in the levels of MTT reduction
[4]
  rate of reduction of DCIP (SDH/Complex II activity): decreased rapidly and significantly after treatment with α-TOS
